Where two headings read alike, the source gives them in different places.
Key:
[1] = Detection of BVDU and metabolite in urine of the dosed animals; type: in vivo, mice
[2] = tested on: herpes simplex virus type 1 (strain SC-16); assay: Hairless mouse cutaneous herpesvirus model (lesion scoring); type: in vivo, adult hairless (HrHr) female mice; conditions: each x one mouse, BVDU 100mg/kg or BVDU/Probenecid 100/200mg/kg
Method: When hairless mice are infected with herpesvirus by dermal scaritication, vesicles appear at the site ot inoculation b days later. These rapidly coalesce to form a spreading unilateral lesion involving one hind quarter, leading eventually to ascending paralysis and death. The ettect ot treatments is assessed by a scoring method as lesions develop.
uroups ot lu adult hairless (HrHr) female mice were anaesthetized using ether and then infected with herpes simplex virus type 1 (strain SC-16) by scarifying an area =1cm^2 at a site parallel with the top of the left hind limb, just below the midline, and introducing a drop ot virus-containing solution to tnis site. single dally doses ot placebo, Bvuu (100mg/kg/dose) or a 1:2 mixture or BVDU and probenecid (100/200mg/kg/dose) were administered orally for seven days, commencing 24 hours after intection. From 4 days atter infection individual mice were examined daily and scored according to the severity ot infection.

[3] = HPLC assay of BVDU, BVDU metabolite and probenecid in mouse serum; type: in vivo, female Balb/c mice; conditions: for concentration at 1.25 h: Experiment 2, 75 mins after dosing; for concentration at 2 h: Experiment 2, 120 mins after dosing
Method: (§1) A single 100 mg/kg dose of BVDU, alone or in combination with 100 mg/kg or 200 mg/kg of probenecid, was administered as a suspension in carboxymethyl cellulose'to groups of 3 starved female Balb/c mice. Blood was collected at 30, 75 (or 85) and 120 minutes after dosing and the serum separated and stored at -20°C.
Instrument: Waters H.P.L.C. Column: RCM 100 C18 Reverse Phase Radical Compression Column Solvents: Solvent (A) 0.05M Ammonium Acetate at pH4.5 Solvent (B) 80% Methanol, 10% Water, 10%(A) Conditions: 50% (B) Detector wavelength: 250 mp Solvent Flow: 1 and 3 mL/min.
Mouse serum samples (90 pL each) were treated with 16% aqueous trichloroacetic acid solution (90 µL) to deposit all proteins and the samples spun down using a micro centrifuge. The supernatant portions were assayed by injection (20 µL) into a reverse phase HPLC column). […] Under these conditions, the BVDU metabolite had retention time of 10.8 min and BVDU 11.6 min. The amounts of BVDU and Probenecid were calculated by comparison with an injected known amount of.each drug. The amounts of BVDU metabolite were calculated by assuming the same detector response as BVDU. All calculations were then extrapolated to give the amount of each component present in each serum sample in pg/mL.
(§2) Mice dosed with BVDU and serum assayed at 30 and 85 minutes atter drug administration.
Mice dosed with BVDU or combinations of BVDU and Probenecid and the serum assayed by HPLC at 30, 75 and 120 minutes after drug administration.

[4] = Plaque inhibition assay of sera from dosed mice (biological assay of antiviral activity in serum); type: cell-based, Herpes simplex type 1 virus; conditions: Experiment 1, single 100 mg/kg dose of BVDU, mouse serum, read-out: Antiviral activity in serum (BVDU equiv (µg/mL) ± Standard Deviation)
Method: as §1
(§3) Heat inactivated sera from single mice were titrated in plaque inhibition assays using the KOS strain of Herpes simplex type 1 virus in Vero cell monolayers. Antiviral activity is calculated by extrapolation from a standard inhibition dose response curve for BVDU and is quoted as the equivalent concentration of BVDU (in pg/mL) giving the same activity in cell culture.
as §2

[5] = tested on: herpes simplex virus type 1 (strain SC-16); assay: Mouse ear herpesvirus model (virus replication and ear inflammation); type: in vivo, female Balb/c mice; conditions: for Virus titre (log10 p.f.u./ear) / Difference in ear thickness between uninfected and infected ears (mm x 10^-2): oral 3 x daily day 0 to day 4, BVDU 100mg/kg/dose or BVDU/Probenecid 100/200mg/kg/dose
Method: 1. Mouse Ear Herpesvirus Model (Reference, H.J. Field, Antimicrob. Ag. Chemother., 21, 744 (1982))
This model is based upon comparisons of viral replication in, and intlammation of, the ears of untreated or treated mice atter infection with herpesvirus.
The left pinna of female Balb/c mice were infected intradermally with 10^5 PFU of herpes simplex virus type 1 (strain SC-16) suspended in 2U^gl of Eagle minimum essential medium. The mice were treated orally 3 times daily from the time of infection until day +4 with BVDU at 100mg/kg/dose or a 1:2 mixture of BVDU and probenecid (100/200mg/kg/dose). At selected times after infection groups of three mice were killed and the ear thickness of both the left and right ears measured using a micrometer gauge. The left ears were then removed and placed individually into 3ml of phosphate buffered saline. Samples were homogenised and sonicated. After centrifugation the supernatant was removed and assayed immediately in a plaque assay in Vero cells.

[6] = tested on: KOS strain of Herpes simplex type 1 virus in Vero cell monolayers; assay: Plaque inhibition assay of sera from dosed mice (biological assay of antiviral activity in serum); type: cell-based; conditions: inferred from comparison of serum bioassay with HPLC levels of BVDU and metabolite
Method: as §1, §3, §2

[7] = Day +8, single daily oral doses for seven days
[8] = Day +11, single daily oral doses for seven days
[9] = mouse, in vivo, 100 mg/kg, single dose, BVDU 100 mg/kg alone or with probenecid 100 or 200 mg/kg, read-out: Concentration (µg/mL) in Serum BVDU
[10] = single dose, probenecid 200 mg/kg alone or 100 or 200 mg/kg with BVDU 100 mg/kg, read-out: Concentration (µg/mL) in Serum Probenecid

O=c1[nH]c(=O)n([C@H]2C[C@H](O)[C@@H](CO)O2)cc1/C=C/Br [BVDU, E-5-(2-bromovinyl)-2'-deoxyuridine]
detected in the urine [1]: only BVDU and none of the metabolite was detected in the urine | Mice with lesion score 2 (Scab at infection site) ([2]; Day +4, single daily oral doses for seven days from 24 hours after infection): xxxxxxx | Mice with lesion score 1 (1° Vesicles) ([2]; Day +4, single daily oral doses for seven days): xxx | Mice with lesion score 5 (Severe spreading) [2, 7]: xxxxxxx | Mice with lesion score 7 (Death) [2, 7]: xx | Mice with lesion score 4 (Spreading) [2, 8]: xx | Mice with lesion score 5 (Severe spreading) [2, 8]: xxx | Mice with lesion score 7 (Death) [2, 8]: xxxx | concentration at 0.5 h ([3]; in vivo, Experiment 2, 30 mins after dosing, single dose, BVDU 100 mg/kg alone or with probenecid 100 or 200 mg/kg (dose in brackets in label), read-out: Concentration (µg/mL) in Serum BVDU): 26.1 µg/mL | concentration at 0.5 h ([3]; mouse, in vivo, 100 mg/kg, Experiment 1, 30 mins after dosing, single 100 mg/kg dose of BVDU, read-out: HPLC Determinations BVDU Conc (µg/mL) in serum): 38 µg/mL | concentration at 85 min ([3]; mouse, in vivo, 100 mg/kg, Experiment 1, 85 mins after dosing, single 100 mg/kg dose of BVDU, read-out: HPLC Determinations BVDU Conc (µg/mL) in serum): 3.9 µg/mL | concentration at 1.25 h [3, 9]: 13 µg/mL | concentration at 2 h [3, 9]: 3.6 µg/mL | concentration at 0.5 h ([4]; 30 mins after dosing): 39.8 ± 10.6 µg/mL | concentration at 85 min ([4]; 85 mins after dosing): 4.7 ± 1.4 µg/mL | Virus titre (log10 p.f.u./ear) ([5]; Experiment A, day 1 post inoculation): 3.5 log10 p.f.u./ear | Virus titre (log10 p.f.u./ear) ([5]; Experiment A, day 2 post inoculation): 3.0 log10 p.f.u./ear | Virus titre (log10 p.f.u./ear) ([5]; Experiment A, day 3 post inoculation): 2.9 log10 p.f.u./ear | Virus titre (log10 p.f.u./ear) ([5]; Experiment A, day 4 post inoculation): 3.3 log10 p.f.u./ear | Virus titre (log10 p.f.u./ear) ([5]; Experiment A, day 7 post inoculation): 1.3 log10 p.f.u./ear | Virus titre (log10 p.f.u./ear) ([5]; Experiment B, day 1 post inoculation): 4.1 log10 p.f.u./ear | Virus titre (log10 p.f.u./ear) ([5]; Experiment B, day 2 post inoculation): 3.0 log10 p.f.u./ear | Virus titre (log10 p.f.u./ear) ([5]; Experiment B, day 3 post inoculation): 3.3 log10 p.f.u./ear | Virus titre (log10 p.f.u./ear) ([5]; Experiment B, day 4 post inoculation): 3.9 log10 p.f.u./ear | Virus titre (log10 p.f.u./ear) ([5]; Experiment B, day 7 post inoculation): 0 log10 p.f.u./ear | Difference in ear thickness between uninfected and infected ears (mm x 10^-2) ([5]; day 1 post inoculation): 10.1 mm x 10^-2 | Difference in ear thickness between uninfected and infected ears (mm x 10^-2) ([5]; day 2 post inoculation): 14.2 mm x 10^-2 | Difference in ear thickness between uninfected and infected ears (mm x 10^-2) ([5]; day 3 post inoculation): 13.4 mm x 10^-2 | Difference in ear thickness between uninfected and infected ears (mm x 10^-2) ([5]; day 4 post inoculation): 15.1 mm x 10^-2 | Difference in ear thickness between uninfected and infected ears (mm x 10^-2) ([5]; day 7 post inoculation): 20.7 mm x 10^-2 | Difference in ear thickness between uninfected and infected ears (mm x 10^-2) ([5]; day 8 post inoculation): 20.8 mm x 10^-2 | Difference in ear thickness between uninfected and infected ears (mm x 10^-2) ([5]; day 9 post inoculation): 20.2 mm x 10^-2 | Difference in ear thickness between uninfected and infected ears (mm x 10^-2) ([5]; day 11 post inoculation): 16.1 mm x 10^-2 | Difference in ear thickness between uninfected and infected ears (mm x 10^-2) ([5]; day 12 post inoculation): 14.0 mm x 10^-2 | Difference in ear thickness between uninfected and infected ears (mm x 10^-2) ([5]; day 14 post inoculation): 10.1 mm x 10^-2 | ear thickness ([5]; oral 3 times daily until day +4, BVDU 100mg/kg/dose or 1:2 mixture 100/200mg/kg/dose): no ettect

CCCN(CCC)S(=O)(=O)c1ccc(C(=O)O)cc1 [Probenecid]
concentration at 0.5 h ([3]; Experiment 2, 30 mins after dosing, single dose, probenecid 200 mg/kg alone or 100 or 200 mg/kg with BVDU 100 mg/kg, read-out: Concentration (µg/mL) in Serum Probenecid): 3.8 µg/mL | concentration at 1.25 h [3, 10]: 3.2 µg/mL | concentration at 2 h [3, 10]: 2.3 µg/mL

O=c1[nH]cc(/C=C/Br)c(=O)[nH]1 [BVDU Metabolite]
antiviral activity [6]: no significant antiviral activity

— EP0082667A1, “Pharmaceutical compositions” (BEECHAM GROUP PLC, priority 1981, dated 1983)
